The test system of one assay is acne. As to the kind of experiment: Study Volunteer experiences with oral taurine-magnesium treatment regimens. The note with it: for Treatment Outcome: TAU 1500 mg/day, Mg 0. The assay is classed as in vivo, human. From the text:
The following non-limiting examples show Study Volunteer experiences with various taurine-magnesium treatment regimens. Volunteers were listed in the chronological order of the start of their taking full daily doses of taurine with magnesium.
Severity of acne was the following: Volunteers 1 and 2 had sporadic mild acne, Volunteers 3 and 4 had chronic cyclic mild acne, Volunteer 5 had chronic acne that appeared to be between mild and moderate, Volunteer 6 had chronic severe acne with scarring, Volunteer 7 had chronic moderate acne, Volunteer 8 had frequent mild acne, and Volunteer 9 had acne that appeared to be between mild and moderate.
The data provided in the Examples support the surprising conclusion that relatively high doses of taurine together with magnesium provide excellent treatment and in some cases prevention of mild to severe acne. […] As described in the Examples, some Volunteers, in addition to taking their recommended supplements of taurine and magnesium, for some weeks or months took other micronutrient supplements or even a multivitamin/mineral supplement containing an extra low dose of magnesium.

The next assay has as its target T1, LXR-alpha (Homo sapiens, UniProt Q13133).
T1 construct: host or cells: liver cells in vitro
T1 sequence (Q13133 1-447): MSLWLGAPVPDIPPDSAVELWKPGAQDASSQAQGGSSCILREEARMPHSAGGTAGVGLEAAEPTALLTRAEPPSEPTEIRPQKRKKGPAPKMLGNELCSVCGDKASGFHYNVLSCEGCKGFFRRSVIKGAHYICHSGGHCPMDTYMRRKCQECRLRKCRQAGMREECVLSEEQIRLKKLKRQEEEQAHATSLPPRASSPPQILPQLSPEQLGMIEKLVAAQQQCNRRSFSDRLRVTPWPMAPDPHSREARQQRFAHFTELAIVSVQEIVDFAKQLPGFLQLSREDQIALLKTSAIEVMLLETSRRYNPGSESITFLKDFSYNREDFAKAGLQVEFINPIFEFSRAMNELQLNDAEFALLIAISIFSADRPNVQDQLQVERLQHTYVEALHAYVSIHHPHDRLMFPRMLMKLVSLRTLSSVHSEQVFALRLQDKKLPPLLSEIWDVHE
The note with it: liver cells in vitro; cited from earlier work.

SMILES strings stand for the structures.

`NCCS(=O)(=O)O` [taurine]: the “Treatment Outcome” value with acne (Volunteer 2, mild acne with noticeable lesions, 5 days) was “No improvement”. In addition, in the assay on acne (Volunteer 2, taurine alone 1.5 g daily, 5 days), the “Improvement of acne lesions” value was “no improvement”. Also, the “Treatment Outcome” value with acne (Volunteer 4, mild acne, break-out lesions with menstrual period, 7 days) was “Slight”. For the same molecule, in the assay with acne (Volunteer 4, taurine only, first week), the Improvement of acne entry is “slight improvement”. Further, at LXR-alpha, the Cellular lipid levels result is listed as “dose-dependent marked reduction” and the “LXR-alpha ligand activity / lipogenesis” value is reported as “ligand of LXR-alpha that inhibits lipogenesis”.

These data come from US10342823B2, “Topical and oral formulations comprising taurine and magnesium for the prevention and treatment of acne” (priority 2015, dated 2019).
